# Legend:
# α2 GlyR = target: T1, α2 GlyR (Rattus norvegicus, UniProt P22771); assay: cell-based; format: cell-based
# T1 construct: The cells were transfected with plasmids encoding the following proteins; expressed in transfected cells; host or cells: HEK293 (ATCC CRL-1573)
# T1 sequence (P22771 28-452): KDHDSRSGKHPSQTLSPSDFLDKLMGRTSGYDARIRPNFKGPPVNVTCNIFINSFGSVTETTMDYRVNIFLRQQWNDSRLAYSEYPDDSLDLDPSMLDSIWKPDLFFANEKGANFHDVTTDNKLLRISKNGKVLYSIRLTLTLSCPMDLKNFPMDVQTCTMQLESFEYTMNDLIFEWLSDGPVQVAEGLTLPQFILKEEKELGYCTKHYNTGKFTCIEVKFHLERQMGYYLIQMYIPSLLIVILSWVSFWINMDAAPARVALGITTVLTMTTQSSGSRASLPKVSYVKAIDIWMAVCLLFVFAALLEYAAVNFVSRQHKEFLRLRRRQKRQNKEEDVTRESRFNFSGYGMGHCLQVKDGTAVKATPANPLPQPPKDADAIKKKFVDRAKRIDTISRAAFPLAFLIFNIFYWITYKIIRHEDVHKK
# Method: (§1) The cells were transfected with plasmids encoding the following proteins: (i). rat GlyR α (1, 2, 3) subunits alone or combined with rat β subunits (Uniprot Accession Numbers: Q546L7, P22771, P20236, P20781); and (ii). rat GABAAR α1 combined with rat β2 and γ2 subunits (Uniprot Accession Numbers: P62813, P63138, P18508). The EGFP expression was used as a marker of successful protein expression. The transfection was performed using Lipofectamine 2000 (Invitrogen, ThermoFisher, Carlsbad, CA, USA) using the fabricant protocol. The plasmids used to express GlyRs and GABAARs have been previously described. To track the successful expression of GlyR β subunits and the GABAA γ2 or β2 subunit, these proteins were subcloned in the pIRES2-EGFP vector. The transfection ratio to obtain β-containing GlyRs was 1:5 of α:β, while the expression of γ2-containing GABAA receptors was 1:2:5 of α:β:γ2 [14, 15]. Chimeric GlyRs were described in a previous report. Site directed mutagenesis was performed by Charm Gene Science Mutagenex LLC. (Cumming, GA, USA). All the constructs were checked by full-length sequencing (SNPSaurus, Eugene, OR, USA).
# (§2) In brief, patch electrodes (3–4 MΩ) were pulled from borosilicate glasses in a PC-100 puller (Narishige, Tokyo, Japan); then, they were filled with an intracellular solution, which contained (in mM) 120 CsCl, 8 EGTA, 10 HEPES (pH 7.4), 4 MgCl2, 0.5 GTP, and 2 ATP. The extracellular solution contained (in mM) 140 NaCl, 5.4 KCl, 2.0 CaCl2, 1.0 MgCl2, 10 HEPES (pH 7.4), and 10 glucose. Whole-cell patch-clamp recordings were performed at −60 mV with an Axoclamp 200B (Molecular Devices, Sunnyvale, CA, USA) or with HEKA EPC-10 (HEKA Elektronik GmbH, Reutlingen, Germany) amplifiers. […] Brief (3–5 s) pulses of agonist together with alkaloids were applied to cells. Stock solutions of the alkaloids were prepared in high purity distilled water. Aliquots of these stock solutions were diluted in reservoirs containing extracellular solution. […] The concentration–response curve parameters for the alkaloid inhibition (IC50, nH, and the maximal current inhibition) were obtained from the fitted curve of normalized concentration–response data points to the equation Iagonist = Imax (agonist)nH/((agonist)nH + (EC50)nH). The IC50 curves are best-fit mean ± SE from pooled data. […] The inhibition constant (Ki) was calculated using the Cheng–Prusoff equation (Ki = IC50/((2 + ([Agonist]/EC50)^nH)^1/nH − 1). The concentration of agonist corresponds to the sub-saturating agonist concentration used to obtain the IC50 for each alkaloid on a given GlyR subtype.
# chimeric α1α2 GlyR = target: T2, chimeric α1α2 GlyR (Rattus norvegicus, UniProt P07727+P22771, F345L/G282A/I268V/L342F/S324A); format: cell-based
# T2 construct: Relevance of the ECD for the subunit-specific actions of gelsemine on α1GlyRs; expressed in transfected cells; host or cells: HEK293 (ATCC CRL-1573)
# T2 sequence (P07727+P22771 with tags, fused parts or gaps P07727:I268V/P07727:G282A/P07727:S324A/P07727:L342F/P07727:F345L): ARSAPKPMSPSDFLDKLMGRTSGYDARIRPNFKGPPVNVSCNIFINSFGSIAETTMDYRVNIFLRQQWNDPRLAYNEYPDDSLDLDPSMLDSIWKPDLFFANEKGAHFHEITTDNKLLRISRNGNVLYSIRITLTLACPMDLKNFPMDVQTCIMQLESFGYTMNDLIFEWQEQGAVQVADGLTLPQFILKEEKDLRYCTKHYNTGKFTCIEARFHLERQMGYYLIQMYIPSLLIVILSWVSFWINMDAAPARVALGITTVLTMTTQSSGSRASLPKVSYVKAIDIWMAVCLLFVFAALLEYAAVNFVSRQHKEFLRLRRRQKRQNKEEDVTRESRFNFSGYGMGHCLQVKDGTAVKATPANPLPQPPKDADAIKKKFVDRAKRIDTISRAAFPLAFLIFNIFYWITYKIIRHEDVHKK
# Method: as §1
# as §2, with “The” for “The inhibition constant (Ki) was calculated using the Cheng–Prusoff equation (Ki = IC50/((2 + ([Agonist]/EC50)^nH)^1/nH − 1). The”
# [1] = cited from earlier work
# α3β GlyR = target: T3, α3β GlyR (Rattus norvegicus, UniProt P20781+P24524); assay: cell-based; format: cell-based
# T3 construct: The cells were transfected with plasmids encoding the following proteins; expressed in transfected cells; host or cells: HEK293 (ATCC CRL-1573)
# T3 sequence (P24524 34-464): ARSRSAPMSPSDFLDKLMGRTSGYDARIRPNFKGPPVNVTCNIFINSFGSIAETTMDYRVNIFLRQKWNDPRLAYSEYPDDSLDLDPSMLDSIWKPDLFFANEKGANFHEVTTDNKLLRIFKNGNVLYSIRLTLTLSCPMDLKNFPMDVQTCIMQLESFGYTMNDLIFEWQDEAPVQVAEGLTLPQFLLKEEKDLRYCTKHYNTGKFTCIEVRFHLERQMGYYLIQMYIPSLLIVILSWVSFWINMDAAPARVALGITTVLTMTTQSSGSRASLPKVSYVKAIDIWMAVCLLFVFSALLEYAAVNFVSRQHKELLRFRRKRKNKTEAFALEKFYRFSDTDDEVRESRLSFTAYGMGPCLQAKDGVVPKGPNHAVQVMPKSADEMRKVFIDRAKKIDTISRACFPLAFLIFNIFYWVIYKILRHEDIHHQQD
# T3 sequence (P20781 23-496): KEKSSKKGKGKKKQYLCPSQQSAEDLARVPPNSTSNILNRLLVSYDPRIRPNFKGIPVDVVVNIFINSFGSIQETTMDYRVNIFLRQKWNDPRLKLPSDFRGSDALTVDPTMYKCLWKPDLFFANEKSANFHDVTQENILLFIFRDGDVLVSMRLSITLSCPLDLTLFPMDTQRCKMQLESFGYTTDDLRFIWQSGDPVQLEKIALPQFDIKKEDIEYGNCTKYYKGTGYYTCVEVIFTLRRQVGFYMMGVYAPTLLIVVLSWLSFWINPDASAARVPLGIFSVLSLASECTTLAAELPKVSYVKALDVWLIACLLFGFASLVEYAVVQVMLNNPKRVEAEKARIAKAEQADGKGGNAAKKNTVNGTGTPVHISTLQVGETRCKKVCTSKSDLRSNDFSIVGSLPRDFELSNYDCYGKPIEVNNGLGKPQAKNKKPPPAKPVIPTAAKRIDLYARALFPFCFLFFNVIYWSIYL
# Method: as §1
# as §2, with “The” for “The inhibition constant (Ki) was calculated using the Cheng–Prusoff equation (Ki = IC50/((2 + ([Agonist]/EC50)^nH)^1/nH − 1). The”
# [2] = Hill coefficient of inhibition curve
# [3] = calculated using the Cheng–Prussof equation
Structure (SMILES),"effect on glycine-evoked currents (in words) (α2 GlyR; wild-type, 50 μM gelsemine, 60 μM glycine)","effect on glycine-evoked currents (in words) (chimeric α1α2 GlyR; 10 μM gelsemine, 35 μM glycine)",residue in brain tissue after systemic application [1],EC50 (α2 GlyR; read-out: EC50 of agonist),EC50 (α3β GlyR; read-out: EC50 of agonist),EC50 (chimeric α1α2 GlyR; read-out: EC50 of agonist),IC50 (α2 GlyR),nH (α2 GlyR; [2]),Ki (α2 GlyR; [3]),IC50 (α3β GlyR),nH (α3β GlyR; [2]),Ki (α3β GlyR; [3])
C=C[C@]12CN(C)[C@@H]3[C@H]4CO[C@H](C[C@H]41)[C@]1(C(=O)Nc4ccccc41)[C@@H]32 [gelsemine],inhibited,potentiated,detectable in brain tissue after 3 days,,,,,,,,,
"NCC(=O)O [glycine, reference compound]",,,,91 ± 6 µM,243 ± 13 µM,55 ± 3 µM,,,,,,
C=C[C@@]12CN(C)[C@H]3C[C@]14C(=Nc1ccccc14)[C@H]1C[C@@H]2[C@@H]3CO1 [koumine],,,fully depleted after 1 day,,,,11.2 ± 2.1 µM,1.0 ± 0.2,44.2 ± 4.6 µM,20.2 ± 7.7 µM,0.9 ± 0.3,54.1 ± 20 µM

# From publication PMC10970644, “Molecular Pharmacology of Gelsemium Alkaloids on Inhibitory Receptors” (International Journal of Molecular Sciences, 2024)
